Reference: patent US20060058268A1, “Compounds and methods for treating diabetic vascular diseases” (priority 2004, published 2006)
Where a name gives a salt, the structure may show the parent alone.

System: VCAM-1
Test: VCAM-1 assay with ELISA readout (Examples 5-6)
Type: cell-based
Conditions: for IC50: TNF added with compound, incubated overnight (approximately 16 hours)
Experimental: Two to four confluent P150 plates are trypsinized and the cells transferred to a 50 mL conical centrifuge tube. The cells are pelleted, resuspended, and counted using the trypan blue exclusion method.
Cells are resuspended at a concentration of 36,000 cells/mL and 1 mL is aliquoted per well.
Cells are split into 24 well tissue culture plates. The cells in each well should be approximately 90-95% confluent by the following day. Cells should not be older than passage 8.
Compounds are initially screened at 50 μM and 10 μM. A 50 mM stock solution for each compound is prepared in culture medium. The stock solution is diluted to 5 mM and 1 mM. When 10 μL of the 5 mM solution is added to the well (1 mL medium/well), the final concentration will be 50 μM. Adding 10 μL of the 1 mM solution to the well will give a final concentration of 10 μM.
Compounds which will not go into solution in culture medium are resuspended in DMSO at a concentration of 25 mM. The stock solution is then diluted to the final concentration in culture medium. The old medium is aspirated and 1 mL of the new medium with the compound is added. For example, if the final concentration is 50 µM, the 2 μL of the 25 mM stock is added per mL of culture medium. The […] solution is diluted for lower concentrations.
The compounds are added to the plate (each compound is done in duplicate). One plate is done for VCAM expression and one plate is done for ICAM expression.
Immediately after the compounds are added, TNF is added to each well. 100 units/mL TNF is usually added to each well. Since each lot of TNF varies in the number of units, each new lot is titrated to determine the optimum concentration. Therefore this concentration will change. If 100 units/mL is being used, dilute the TNF to 10 units/μL and add 10 μL to each well.
The plates are incubated at 37° C., 5% CO2 overnight (approximately 16 hours). The next day the plates are checked under the microscope to see if there are any visual signs of toxicity. Records are made of any cell death, debris, or morphology changes, as well as insoluble compounds (particulate or turbity).
In order to assess MCP-1, the media (500 μL) is saved and frozen at −70° C. Wash cells once with roughly 1 ml/well of Hanks Balance Salt Solution (HBSS) or PBS. Gently empty the wash solution and then tap the plate onto paper towels. Add either 250 μL/well of HBSS+5% FCCS to the plank (no primary antibody wells) or 250 μL/well of primary antibody diluted in HBSS+5% FCS. Incubate for 30 minutes at 37° C. Wash the wells twice with 0.5 mL/well HBSS or PBS and gently tap the plates onto paper towels after the last wash. Add 250 μL/well of HRP-conjugated second antibody diluted in HBSS+5% FCS to every well including the blank wells (no primary antibody). Incubate at 37° C. for 30 minutes. Wash the wells four times with 0.5 mL/well HBSS or PBS and gently tap the plates onto paper towels after the last wash. Add 250 μL/well of substrate solution. Incubate at room temperature in the dark until there is adequate color development (blue). Note the length of time incubation was performed (typically 15-30 minutes). Add 75 μL/well stopper solution (8N sulfuric acid), and read at 450 nm.

Row | Compound | IC50 (16 h) | IC50 | also measured
1 | 2,6-di-tert-butyl-4-thio(3′,5′-ditert-butyl,4′-hydroxy butanedioic acid ester)phenol | – | 6 µM | –
2 | CC(C)(Sc1cc(C(C)(C)C)c(O)c(C(C)(C)C)c1)Sc1cc(C(C)(C)C)c(OCC(O)CO)c(C(C)(C)C)c1 (centres unmarked) [1,2-Propanediol, 3-[4-[[1-[[3,5-bis(1,1-dimethylethyl)-4-hydroxyphenyl]thio]-1-methylethyl]thio]-2,6-bis(1,1-dimethylethyl)phenoxy]-] | 30 µM | – | –
3 | COc1c(C(C)(C)C)cc(SCc2ccc(C(F)(F)F)cc2)cc1C(C)(C)C [2,6-di-tert-butyl-1-methoxy-4-thio(4′-trifluoromethyl)benzyl)benzene] | – | > 50 µM | –
4 | CC(=O)OC(C)(C)CSc1cc(C(C)(C)C)c(O)c(C(C)(C)C)c1 [2,6-di-tert-butyl-4-thio(2′-acetoxy,2′-methylpropyl)phenol] | – | 50 µM | –
5 | CC(C)(C)c1cc(SCCCS(=O)(=O)O)cc(C(C)(C)C)c1O [2,6-di-tert-butyl-4-thio(3′-propanesulfonic acid)phenol] | – | – | VCAM-1 inhibition at [μM] (at 50 μM): 25% at 50
6 | CC(C)(C)c1cc(SCc2ccc(F)cc2)cc(C(C)(C)C)c1O [2,6-di-tert-butyl-4-thio(4′-fluorobenzyl)phenol] | – | 35 µM | –
7 | Cc1ccc(CSc2cc(C(C)(C)C)c(O)c(C(C)(C)C)c2)cc1 [2,6-di-tert-butyl-4-thio(4′-methylbenzyl)phenol] | – | 75 µM | –
8 | CN(C)Cc1ccc(CSc2cc(C(C)(C)C)c(O)c(C(C)(C)C)c2)o1 [2,6-di-tert-butyl-4-thio(5′-methyl-2′-((dimethylamino)methyl)furan)phenol] | – | 10 µM | –
9 | CC(C)(Sc1cc(C(C)(C)C)c(O)c(C(C)(C)C)c1)Sc1cc(C(C)(C)C)c(OC(=O)c2ccc([N+](=O)[O-])o2)c(C(C)(C)C)c1 [2-Furancarboxylic acid, 5-nitro-, 4-[[1-[[3,5-bis(1,1-dimethylethyl)-4-hydroxyphenyl]thio]-1-methylethyl]thio]-2,6-bis(1,1-dimethylethyl)phenyl ester] | 25 µM | – | –
10 | CC(C)(Sc1cc(C(C)(C)C)c(O)c(C(C)(C)C)c1)Sc1cc(C(C)(C)C)c(O/C=C/C(=O)O)c(C(C)(C)C)c1 [2-Propenoic acid, 3-[4-[[1-[[3,5-bis(1,1-dimethylethyl)-4-hydroxyphenyl]thio]-1-methylethyl]thio]-2,6-bis(1,1-dimethylethyl)phenoxy]-, (E)-] | 30 µM | – | –
11 | C=CC(=O)OCCCCOc1c(C(C)(C)C)cc(SC(C)(C)Sc2cc(C(C)(C)C)c(O)c(C(C)(C)C)c2)cc1C(C)(C)C [2-Propenoic acid, 4-[4-[[1-[[3,5-bis(1,1-dimethylethyl)-4-hydroxyphenyl]thio]-1-methylethyl]thio]-2,6-bis(1,1-dimethylethyl)phenoxy]butyl ester] | 75 µM | – | –
12 | CN(C)c1ccc(CCOc2c(C(C)(C)C)cc(SC(C)(C)Sc3cc(C(C)(C)C)c(OCCc4ccc(N(C)C)cc4)c(C(C)(C)C)c3)cc2C(C)(C)C)cc1 [Benzenamine, 4,4′-[(1-methylethylidene)bis [thio[2,6-bis(1,1-dimethylethyl)-4,1-phenylene]oxy-2,1-ethanediyl]]bis[N,N-dimethyl-] | – | > 50 µM | –
13 | CC(C)(Sc1cc(C(C)(C)C)c(O)c(C(C)(C)C)c1)Sc1cc(C(C)(C)C)c(OC(=O)CCC(=O)O)c(C(C)(C)C)c1 [Butanedioic acid, mono [4-[[1-[[3,5-bis(1,1-dimethylethyl)-4-hydroxyphenyl]thio]-1-methylethyl]thio]2,6-bis(1,1-dimethylethyl)phenyl] ester] | – | 5.6 µM | –
14 | Cc1cc(SC(C)(C)Sc2cc(C(C)(C)C)c(O)c(C(C)(C)C)c2)cc(C)c1OC(=O)CN [Glycine, 4-[[1-[[3,5-bis(1,1-dimethylethyl)-4-hydroxyphenyl]thio]-1-methylethyl]thio]-2,6-dimethylphenyl ester] | – | – | inhibition at 20 µM (at 20 μM): 10%
15 | CC(C)(Sc1cc(C(C)(C)C)c(OC(=O)CN)c(C(C)(C)C)c1)Sc1cc(C(C)(C)C)c(OC(=O)CN)c(C(C)(C)C)c1 [Glycine, (1-methylethylidene)bis[bis[thio-2,6-bis(1,1-dimethylthyl)-4,1-phenylene]]ester, dihydrochloride] | – | > 50 µM | –
16 | CC(C)(Sc1cc(C(C)(C)C)c(O)c(C(C)(C)C)c1)Sc1cc(C(C)(C)C)c(OCC2OC2CO)c(C(C)(C)C)c1 (centres unmarked) [Oxiranemethanol, 3-[[4-[[1-[[3,5-bis(1,1-dimethylethyl)-4-hydroxyphenyl]thio]-1-methylethyl]thio]-2,6-bis(1,1-dimethylethyl)phenoxy]methyl]-] | – | > 100 µM | –
17 | CC(C)(Sc1cc(C(C)(C)C)c(O)c(C(C)(C)C)c1)Sc1cc(C(C)(C)C)c(OCC(O)C2CO2)c(C(C)(C)C)c1 (stereo not drawn) [Oxiranemethanol, α-[[4-[[1-[[3,5-bis(1,1-dimethylethyl)-4-hydroxyphenyl]thio]-1-methylethyl]thio]-2,6-bis(1,1-dimethylethyl)phenoxy]methyl]-] | – | 45 µM | –

More lines, main results first:

Row | IC50 (16 h) | Compound | IC50 | also measured
18 | 10 µM | CC(C)(Sc1cc(C(C)(C)C)c(O)c(C(C)(C)C)c1)Sc1cc(C(C)(C)C)c(OCC(=O)O)c(C(C)(C)C)c1 [Acetic acid, [4-[[1-[[3,5-bis(1,1-dimethylethyl)-4-hydroxyphenyl]thio]-1-methylethyl]thio]2,6-bis(1,1-dimethylethyl)phenoxy]-] | – | –
19 | 11 µM | CC(C)(Sc1cc(C(C)(C)C)c(O)c(C(C)(C)C)c1)Sc1cc(C(C)(C)C)c(OCCCC(=O)O)c(C(C)(C)C)c1 [Butanoic acid, 4-[4-[[1-[[3,5-bis(1,1-dimethylethyl)-4-hydroxyphenyl]thio]-1-methylethyl]thio]-2,6-bis(1,1-dimethylethyl)phenoxy]-] | – | –
20 | 19 µM | CC(C)(Sc1ccc(OCCCC(=O)O)cc1)Sc1cc(C(C)(C)C)c(O)c(C(C)(C)C)c1 [Butanoic acid, 4-[4-[[1-[[3,5-bis(1,1-dimethylethyl)-4-hydroxyphenyl]thio]-1-methylethyl]thio]phenoxy]-] | – | –
21 | 110 µM | CC(C)(CO)CC(=O)Oc1c(C(C)(C)C)cc(SC(C)(C)Sc2cc(C(C)(C)C)c(O)c(C(C)(C)C)c2)cc1C(C)(C)C [Butanoic acid, 4-hydroxy-3,3-dimethyl-, 4-[[1-[[3,5-bis(1,1-dimethylethyl)-4-hydroxyphenyl]thio]-1-methylethyl]thio]-2,6-bis(1,1-dimethylethyl)phenyl ester] | – | –
22 | 15 µM | CC(C)(Sc1cc(C(C)(C)C)c(O)c(C(C)(C)C)c1)Sc1cc(C(C)(C)C)c(OC[C@@H](O)[C@@H](O)[C@H](O)[C@@H](O)CO)c(C(C)(C)C)c1 [D-Glucitol, 6-O-[4-[[1-[[3,5-bis(1,1-dimethylethyl)-4-hydroxyphenyl]thio]-1-methylethyl]thio]-2,6-bis(1,1-dimethylethyl)phenyl]-] | – | –
23 | 10 µM | CC(C)(Sc1cc(C(C)(C)C)c(O)c(C(C)(C)C)c1)Sc1cc(C(C)(C)C)c(OC[C@H]2OC(O)[C@H](O)[C@@H](O)[C@@H]2O)c(C(C)(C)C)c1 (stereo partly drawn) [D-Glucopyranose, 6-O-[4-[[1-[[3,5-bis(1,1-dimethylethyl)-4-hydroxyphenyl]thio]-1-methylethyl]thio]-2,6-bis(1,1-dimethylethyl)phenyl]-] | – | –
24 | 75 µM | CC(C)(Sc1cc(C(C)(C)C)c(O)c(C(C)(C)C)c1)Sc1cc(C(C)(C)C)c(OCC(=O)N[C@@H](CCC(=O)O)C(=O)O)c(C(C)(C)C)c1 [Glutamic acid, N-[[4-[[1-[[3,5-bis(1,1-dimethylethyl)-4-hydroxyphenyl]thio]-1-methylethyl]thio]-2,6-bis(1,1-dimethylethyl)phenoxy]acetyl]-] | – | –
25 | 5 µM | CC(C)(Sc1cc(C(C)(C)C)c(O)c(C(C)(C)C)c1)Sc1cc(C(C)(C)C)c(OC(=O)CN)c(C(C)(C)C)c1 [Glycine, 4-[[1-[[3,5-bis(1,1-dimethylethyl)-4-hydroxyphenyl]thio]-1-methylethyl]thio]-2,6-bis(1,1-dimethylethyl)phenyl ester] | – | –
26 | 16 µM | CC(C)(Sc1cc(C(C)(C)C)c(O)c(C(C)(C)C)c1)Sc1cc(C(C)(C)C)c(OCC(O)CNCC(=O)O)c(C(C)(C)C)c1 (centres unmarked) [Glycine, N-[3-[4-[[1-[[3,5-bis(1,1-dimethylethyl)-4-hydroxyphenyl]thio]-1-methylethyl]thio]-2,6-bis(1,1-dimethylethyl)phenoxy]2-hydroxypropyl]-] | – | –
